26 molecules from ChEMBL document CHEMBL1268839, “Small molecules targeting the interaction between HIV-1 integrase and LEDGF/p75 cofactor” (Bioorg Med Chem, 2010) can be followed below.

A short description of test [1]: Inhibition of HIV1 His6-tagged integrase-recombinant flag-tagged LEDGF/p75 interaction at 100 uM after 1 hr by alphascreen assay. A general note: Alpha assays give light when donor and acceptor beads are brought close together.
Test [2] in a line: Inhibition of HIV-1 His6-tagged integrase-recombinant flag-tagged LEDGF/p75 interaction 1 hr by alphascreen assay.
Test [3] in a line: Selectivity ratio of compound IC50 to CHIBA-3003 IC50 for HIV-1 His6-tagged integrase-recombinant flag-tagged LEDGF/p75 interaction.

Broadly, the inhibition is the percentage by which the read-out fell short of the control. The term IC50 denotes the concentration needed to halve the response being measured. With `Cc1cccc(Cn2cc(C(=O)C3=C(O)C(=O)OC3)c3c(O)cccc32)c1`, the inhibition in test [1] worked out at 61%. The IC50 in test [2] amounted to 53.3 µM. Consider `O=C(O)/C(O)=C/C(=O)c1c[nH]c2cccc(O)c12`, for which the inhibition in test [1] was 71%. Also, in test [2], the IC50 was found to be 35 µM.

Take `Cc1ccccc1Cn1cc(C(=O)/C=C(\O)C(=O)O)c2c(O)cccc21`: in test [1], the inhibition is 20%.

Regarding `Cc1cccc(Cn2cc(C(=O)/C=C(\O)C(=O)O)c3c(O)cccc32)c1C`, in test [1], the inhibition is 93%. The IC50 in test [2] was determined as 28.5 µM. As for `Cc1ccc(C)c(Cn2cc(C(=O)C3=C(O)C(=O)OC3)c3c(O)cccc32)c1`, in test [1], the inhibition stood at 38%. In the case of `Cc1ccc(C)c(Cn2cc(C(=O)/C=C(\O)C(=O)O)c3c(O)cccc32)c1`, in test [1], the inhibition amounted to 40%.

For `CCOC(=O)/C(O)=C/C(=O)c1cn(Cc2c(C)cccc2C)c2cccc(O)c12`, the inhibition in test [1] worked out at 47%.

Consider `Cc1ccc(Cn2cc(C(=O)C3=C(O)C(=O)OC3)c3c(O)cccc32)c(C)c1`, for which the inhibition in test [1] stood at 96%. Also, the IC50 in test [2] turned out to be 11.7 µM. In the case of `Cc1ccccc1Cn1cc(C(=O)C2=C(O)C(=O)OC2)c2c(O)cccc21`, in test [1], the inhibition worked out at 34%. For `CCOC(=O)/C(O)=C/C(=O)c1cn(Cc2cccc(C)c2)c2cccc(O)c12`, in test [1], the inhibition turned out to be 45%. On the same count and under the same terms, for `Cc1ccc(Cn2cc(C(=O)/C=C(\O)C(=O)O)c3c(O)cccc32)c(C)c1` the value was 55%. For the molecule `Cc1ccc(Cn2cc(C(=O)C3=C(O)C(=O)OC3)c3c(O)cccc32)cc1`, in test [1], the inhibition stood at 81%. For the same molecule, the IC50 in test [2] came to 8.7 µM.

With `Cc1cccc(Cn2cc(C(=O)/C=C(\O)C(=O)O)c3c(O)cccc32)c1`, in test [1], the inhibition is 16%. Regarding `CCOC(=O)/C(O)=C/C(=O)c1cn(Cc2ccccc2C)c2cccc(O)c12`, in test [1], the inhibition turned out to be 24%. Still for that read-out and setting: under `CCOC(=O)/C(O)=C/C(=O)c1cn(Cc2cccc(C)c2C)c2cccc(O)c12` stands 57%. In the case of `Cc1ccc(Cn2cc(C(=O)/C=C(\O)C(=O)O)c3c(O)cccc32)cc1`, the inhibition in test [1] was found to be 86%. In test [2], the IC50 is 68 µM.

Take `CCOC(=O)/C(O)=C/C(=O)c1cn(Cc2ccc(C)cc2C)c2cccc(O)c12`: the inhibition in test [1] worked out at 58%.

Take `Cc1cc(C)cc(Cn2cc(C(=O)C3=C(O)C(=O)OC3)c3c(O)cccc32)c1`: the inhibition in test [1] worked out at 69%. Further, the IC50 in test [2] amounted to 123 µM. Consider `CCOC(=O)/C(O)=C/C(=O)c1cn(Cc2cc(C)ccc2C)c2cccc(O)c12`, for which, in test [1], the inhibition worked out at 33%.

Regarding `Cc1cccc(C)c1Cn1cc(C(=O)/C=C(\O)C(=O)O)c2c(O)cccc21`, the inhibition in test [1] turned out to be 72%.

As to `O=C(O)/C(O)=C/C(=O)c1cn(Cc2ccc(F)cc2)c2cccc(O)c12`, the inhibition in test [1] turned out to be 56%. Further, the IC50 in test [2] is 76 µM. For `CCOC(=O)/C(O)=C/C(=O)c1cn(Cc2ccc(C)cc2)c2cccc(O)c12` the same measures were 60% and 171 µM.

With `Cc1cccc(Cn2cc(C(=O)C3=C(O)C(=O)OC3)c3c(O)cccc32)c1C`, the inhibition in test [1] was 70%. As to `CCOC(=O)/C(O)=C/C(=O)c1cn(Cc2cc(C)cc(C)c2)c2cccc(O)c12`, in test [1], the inhibition stood at 52%. Consider `Cc1cccc(C)c1Cn1cc(C(=O)C2=C(O)C(=O)OC2)c2c(O)cccc21`, for which, in test [1], the inhibition was 70%. For the same molecule, the IC50 in test [2] is 7.5 µM. `Cc1cc(C)cc(Cn2cc(C(=O)/C=C(\O)C(=O)O)c3c(O)cccc32)c1`: the inhibition in test [1] amounted to 94%. Also, in test [2], the IC50 was found to be 3.5 µM. Further, in test [3], the Ratio IC50 stood at 10.
